# In patent publication US20050123603A1, “Natural menaquinone 7 compositions” (Natural ASA, priority 2003, published 2005):
# Key:
# [1] = tested on: osteocalcin; assay: bone turnover measured as ucOC+cOC during 6-week supplementation; assay type: in vivo, human
# Experimental: (§1) An open study was conducted in which 12 volunteers were randomized in two groups receiving either 180 μg MK-7 (menaquinone 7, 0.27 μmol) or 150 μg K1 (0.33 μmol) per day. The MK-7 was obtained from 2 nattoK2 capsules (Natural ASA) per day, the K1 from a pharmacological preparation (Roche). The supplements were taken at 18.00 h of each day during the 6-week study period. Blood was taken between 08.00 and 09.00 h of days 0 (baseline), 3, 7, 14, 21, 28, 35, and 42. A non-treated control group (n=3) served as a reference group, with blood drawings on days 0, 14, 28, and 42.
# (§2) Measurements: vitamin K1, MK-7, under-carboxylated osteocalcin (ucOC) and carboxylated osteocalcin (cOC).
# (§3) Study population: 6 men and 6 women, aged 55-60 (women postmenopausal). Non-treated controls: 1 man, 2 women in the same age range.
# (§4) These values are needed to calculate the vitamin K-status in bone (the ratio cOC/ucOC) and to estimate the bone metabolic activity (cOC+ucOC). Here a remarkable difference between the effects of K1 and nattoK2 (i.e.: MK-7) was found: whereas cOC was increased by K1 supplementation, it was decreased by nattoK2. The importance of this finding will become clear from FIGS. 9 and 10.
# [2] = tested on: bone loss; settings: postmenopausal women, intervention studies; cited from earlier work
# [3] = tested on: carboxylated osteocalcin (cOC); assay: serum carboxylated osteocalcin (cOC) during 6-week supplementation; assay type: in vivo, human; settings: 6-week daily supplementation, K1 150 μg or 180 μg MK-7 from nattoK2, FIG. 8
# Experimental: as §1, §2, §3
# [4] = tested on: under-carboxylated osteocalcin (ucOC); assay: serum under-carboxylated osteocalcin (ucOC) during 6-week supplementation; assay type: in vivo, human
# Experimental: as §1, §2, §3
# [5] = tested on: osteocalcin; assay: vitamin K status of bone, cOC/ucOC ratio, during 6-week supplementation; assay type: in vivo, human
# Experimental: as §1, §2, §3, §4
# [6] = serum vitamin K (K1, MK-7) during 6-week daily supplementation with nattoK2 capsules or K1; assay type: in vivo, human
# Experimental: as §1, §2, §3
# MK-7 and K1 have different molecular weights (650 and 450, respectively). Therefore, all doses and concentrations were calculated on a molar basis. Since the daily dose of MK-7 from natto was 18% lower than that from K1 (0.27 and 0.33 μmol/day, respectively), it should be kept in mind that the expected results for natto capsules are similarly lower compared to those for K1. […] The normal ranges for K1 and MK-7 in non-treated subjects are between 500 and 1000 pmol/L (FIG. 5C). […] Due to the limited number of participants, the mean baseline levels in the various groups may differ.
"serum K1 level, plateau value ([6]; K1 150 μg (0.33 μmol) per day, blood taken about 15 h after intake, mean)",serum K1 level at 15 h after ingestion ([6]; K1 150 μg per day),time to plateau of serum K1 ([6]; K1 150 μg per day),"increase in total vitamin K status relative to baseline (mean plateau value) ([6]; K1 150 μg per day, 6 weeks, FIG. 6)","serum K1 level at baseline ([6]; K1 group, day 0, mean)",SMILES,"bone turnover measured as ucOC+cOC, end of regimen ([1]; K1 150 μg per day, 6 weeks)","bone turnover measured as ucOC+cOC, start of regimen ([1]; K1 group)",lower rate of bone loss in supplemented groups [2],treatment-induced change in serum carboxylated osteocalcin (cOC) [3],time to reach decreased ucOC value ([4]; K1 150 μg per day),"serum ucOC after treatment ([4]; K1 150 μg per day, value reached within three days)",serum ucOC at baseline ([4]; K1 group),time to plateau levels of the cOC/ucOC ratio ([5]; K1 supplementation),"time at which mean cOC/ucOC ratio crosses the K1 curve ([5]; menaquinone 7 supplementation, ratio increased gradually, no levelling off)"
around 2000 pmol/L,near-baseline levels,within the first three days,1500 pmol/L,816 pmol/L,CC1=C(C/C=C(\C)CCC[C@H](C)CCC[C@H](C)CCCC(C)C)C(=O)c2ccccc2C1=O [K1],5.33,5.28,40%,increased,within three days,1.7 µg/L,2.1 µg/L,3 days,
,,,,,"CC(C)=CCC/C(C)=C/CC/C(C)=C/CC/C(C)=C/CC/C(C)=C/CC/C(C)=C/CC/C(C)=C/CC1=C(C)C(=O)c2ccccc2C1=O [menaquinone 7, (all-E)-2-(3,7,11,15,19,23,27-Heptamethyl-2,6,10,14,18,22,26-octacosaheptaenyl)-3-methyl-1,4-naphthalenedione]",,,,,,,,,5 week
